According to patent publication US10681909B2, “Herbicidal triazoles” (FMC Corporation, priority 2014, dated 2020):

Columns and labels:
smartweed [1] = assay: Test E preemergence; assay type: in vivo, Polygonum persicaria; conditions: scale 0 to 100
Text: (§1) Seeds of plant species selected from corn (Zea mays), soybean (Glycine max), lambsquarters (Chenopodium album), poinsettia, wild (wild poinsettia, Euphorbia heterophylla), pigweed, palmer (palmer pigweed, Amaranthus palmeri), waterhemp (common waterhemp, Amaranthus rudis), surinam grass (Brachiaria decumbens), crabgrass, large (large crabgrass, Digitaria sanguinalis), crabgrass, Brazilian (Brazilian crabgrass, Digitaria horizontalis), panicum, fall (fall panicum, Panicum dichotomiflorum), foxtail, giant (giant foxtail, Setaria faberii), foxtail, green (green foxtail, Setaria viridis), goosegrass (Eleusine indica), johnsongrass (Sorghum halepense), ragweed (common ragweed, Ambrosia elatior), barnyardgrass (Echinochloa crus-galli), sandbur (southern sandbur, Cenchrus echinatus), arrowleaf sida (Sida rhombifolia), ryegrass, Italian (Italian ryegrass, Lolium multiflorum), dayflower, VA (Virginia dayflower, Commelina virginica), field bindweed (Convolvulus arvensis), cocklebur (common cocklebur, Xanthium strumarium), morningglory (Ipomoea coccinea), nightshade (eastern black nightshade, Solanum ptycanthum), kochia (Kochia scoparia), nutsedge, yellow (yellow nutsedge, Cyperus esculentus), smartweed (ladysthumb smartweed, Polygonum persicaria), velvetleaf (Abutilon theophrasti), horseweed (Conyza canadensis), and beggarticks (hairy beggarticks, Bidens pilosa), were planted into a silt loam soil and treated preemergence with test chemicals formulated in a non-phytotoxic solvent mixture which included a surfactant.
(§2) At the same time, plants from these crop and weed species and also waterhemp_RES1, (ALS & Triazine resistant common waterhemp, Amaranthus rudis), and waterhemp_RES2, (ALS & HPPD resistant common waterhemp, Amaranthus rudis) were planted in pots containing Sunshine Redi-Earth® planting medium comprising spaghnum peat moss, vermiculite, starter nutrients and dolomitic limestone were treated with postemergence applications of test chemicals formulated in the same manner. Plants ranged in height from 2 to 18 cm for postemergence treatments (1- to 4-leaf stage). Treated plants and controls were maintained in a greenhouse for 14 to 21 d, after which time all species were compared to controls and visually evaluated. Plant response ratings, summarized in Table E, are based on a scale of 0 to 100 where 0 is no effect and 100 is complete control. A dash (-) response means no test result.

nightshade = assay: Test E preemergence; assay type: in vivo, Solanum ptycanthum; conditions: scale 0 to 100
Text: as §1, §2

arrowleaf sida = assay: Test E postemergence; assay type: in vivo, Sida rhombifolia; conditions: scale 0 to 100
Text: as §1, §2

barnyardgrass = assay: Test E preemergence; assay type: in vivo, Echinochloa crus-galli; conditions: scale 0 to 100
Text: as §1, §2

soybean = assay: Test E preemergence; assay type: in vivo, Glycine max; conditions: scale 0 to 100
Text: as §1, §2

lambsquarters = assay: Test E preemergence; assay type: in vivo, Chenopodium album; conditions: scale 0 to 100
Text: as §1, §2

cocklebur = assay: Test E preemergence; assay type: in vivo, Xanthium strumarium; conditions: scale 0 to 100
Text: as §1, §2

poinsettia, wild = assay: Test E postemergence; assay type: in vivo, Euphorbia heterophylla; conditions: scale 0 to 100
Text: as §1, §2

pigweed, palmer = assay: Test E preemergence; assay type: in vivo, Amaranthus palmeri; conditions: scale 0 to 100
Text: as §1, §2

smartweed [2] = assay: Test E postemergence; assay type: in vivo, Polygonum persicaria; conditions: scale 0 to 100
Protocol: […]
as §2, with “Plants ranged in height from 2 to 18 cm for postemergence treatments (1- to 4-leaf stage).” left out, “Plant response ratings, summarized in Table E, are based on a scale of 0 to 100 where 0 is no effect and 100 is complete control. A dash (-) response means no test result.” left out

crabgrass, Brazilian = assay: Test E postemergence; assay type: in vivo, Digitaria horizontalis; conditions: Brazil, scale 0 to 100
Text: as §1, §2

ryegrass, Italian = assay: Test E postemergence; assay type: in vivo, Lolium multiflorum; conditions: scale 0 to 100
Text: as §1, §2

horseweed = assay: Test E postemergence; assay type: in vivo, Conyza canadensis; conditions: scale 0 to 100
Text: as §1, §2

kochia = assay: Test E postemergence; assay type: in vivo, Kochia scoparia; conditions: scale 0 to 100
Text: as §1, §2

CCc1nc(-c2ccc(C(F)(F)F)cc2)nn1Cc1ccnc(C(F)(F)F)c1 [Compound 1, 4-[[5-ethyl-3-[4-(trifluoromethyl)phenyl]-1H-1,2,4-triazol-1-yl]methyl]-2-(trifluoromethyl)pyridine]
Plant response rating (smartweed [1]; 16 g ai/ha): 25 | Plant response rating (smartweed [1]; 31 g ai/ha): 40 | Plant response rating (smartweed [1]; 62 g ai/ha): 50 | Plant response rating (smartweed [1]; 125 g ai/ha): 60 | Plant response rating (smartweed [1]; 250 g ai/ha): 80 | Plant response rating (nightshade; 16 g ai/ha): 50 | Plant response rating (nightshade; 62 g ai/ha): 75 | Plant response rating (nightshade; 125 g ai/ha): 90 | Plant response rating (nightshade; 250 g ai/ha): 95 | Plant response rating (arrowleaf sida; 16 g ai/ha): 30 | Plant response rating (arrowleaf sida; 31 g ai/ha): 40 | Plant response rating (arrowleaf sida; 62 g ai/ha): 50 | Plant response rating (arrowleaf sida; 125 g ai/ha): 70 | Plant response rating (arrowleaf sida; 250 g ai/ha): 85 | Plant response rating (barnyardgrass; 16 g ai/ha): 0 | Plant response rating (barnyardgrass; 31 g ai/ha): 10 | Plant response rating (barnyardgrass; 62 g ai/ha): 30 | Plant response rating (barnyardgrass; 125 g ai/ha): 30 | Plant response rating (barnyardgrass; 250 g ai/ha): 50 | Plant response rating (soybean; 16 g ai/ha): 0 | Plant response rating (soybean; 31 g ai/ha): 0 | Plant response rating (soybean; 62 g ai/ha): 0 | Plant response rating (soybean; 125 g ai/ha): 10 | Plant response rating (soybean; 250 g ai/ha): 35 | Plant response rating (lambsquarters; 16 g ai/ha): 10 | Plant response rating (lambsquarters; 31 g ai/ha): 65 | Plant response rating (lambsquarters; 62 g ai/ha): 90 | Plant response rating (lambsquarters; 125 g ai/ha): 95 | Plant response rating (lambsquarters; 250 g ai/ha): 95 | Plant response rating (cocklebur; 16 g ai/ha): 0 | Plant response rating (cocklebur; 31 g ai/ha): 0 | Plant response rating (cocklebur; 62 g ai/ha): 0 | Plant response rating (cocklebur; 125 g ai/ha): 10 | Plant response rating (cocklebur; 250 g ai/ha): 30 | Plant response rating (poinsettia, wild; 16 g ai/ha): 60 | Plant response rating (poinsettia, wild; 31 g ai/ha): 70 | Plant response rating (poinsettia, wild; 62 g ai/ha): 75 | Plant response rating (poinsettia, wild; 125 g ai/ha): 80 | Plant response rating (poinsettia, wild; 250 g ai/ha): 90 | Plant response rating (pigweed, palmer; 16 g ai/ha): 80 | Plant response rating (pigweed, palmer; 62 g ai/ha): 98 | Plant response rating (pigweed, palmer; 125 g ai/ha): 100 | Plant response rating (pigweed, palmer; 250 g ai/ha): 100 | Plant response rating (smartweed [2]; 125 g ai/ha): 30 | Plant response rating (smartweed [2]; 250 g ai/ha): 80 | Plant response rating (crabgrass, Brazilian; 16 g ai/ha): 20 | Plant response rating (crabgrass, Brazilian; 31 g ai/ha): 20 | Plant response rating (crabgrass, Brazilian; 62 g ai/ha): 30 | Plant response rating (crabgrass, Brazilian; 125 g ai/ha): 30 | Plant response rating (crabgrass, Brazilian; 250 g ai/ha): 40 | Plant response rating (ryegrass, Italian; 16 g ai/ha): 0 | Plant response rating (ryegrass, Italian; 31 g ai/ha): 10 | Plant response rating (ryegrass, Italian; 62 g ai/ha): 10 | Plant response rating (ryegrass, Italian; 125 g ai/ha): 15 | Plant response rating (ryegrass, Italian; 250 g ai/ha): 25

COc1nc(-c2ccc(Cl)cc2)nn1Cc1ccnc(C(F)(F)F)c1 [Compound 28]
Plant response rating (arrowleaf sida; 31 g ai/ha): 70 | Plant response rating (arrowleaf sida; 62 g ai/ha): 80 | Plant response rating (arrowleaf sida; 125 g ai/ha): 80 | Plant response rating (arrowleaf sida; 250 g ai/ha): 75 | Plant response rating (crabgrass, Brazilian; 31 g ai/ha): 40 | Plant response rating (crabgrass, Brazilian; 62 g ai/ha): 50 | Plant response rating (crabgrass, Brazilian; 125 g ai/ha): 50 | Plant response rating (crabgrass, Brazilian; 250 g ai/ha): 50 | Plant response rating (horseweed; 31 g ai/ha): 20 | Plant response rating (horseweed; 62 g ai/ha): 20 | Plant response rating (horseweed; 125 g ai/ha): 35 | Plant response rating (horseweed; 250 g ai/ha): 40 | Plant response rating (kochia; 31 g ai/ha): 90 | Plant response rating (kochia; 62 g ai/ha): 95 | Plant response rating (kochia; 125 g ai/ha): 95 | Plant response rating (kochia; 250 g ai/ha): 95 | Plant response rating (ryegrass, Italian; 31 g ai/ha): 10 | Plant response rating (ryegrass, Italian; 62 g ai/ha): 20 | Plant response rating (ryegrass, Italian; 125 g ai/ha): 25 | Plant response rating (ryegrass, Italian; 250 g ai/ha): 30
